Measurements as given in publication PMC4457528, “Identification of Novel Small Molecule Inhibitors of Oncogenic RET Kinase” (PLoS ONE, 2015).
Where two headings read alike, the source gives them in different places.

Tests used:
Experiment in all cases: KinomeScan kinase panel, single concentration 10 µM
Format in all cases: binding
KinomeScan kinase panel [1] = biological target: T1, KinomeScan kinase panel (Homo sapiens, UniProt P42685); details: FRK, 10 µM; read-out: score (%)
T1 construct: purchased DiscoveRx (KinomeScan)
T1 sequence (P42685 whole entry): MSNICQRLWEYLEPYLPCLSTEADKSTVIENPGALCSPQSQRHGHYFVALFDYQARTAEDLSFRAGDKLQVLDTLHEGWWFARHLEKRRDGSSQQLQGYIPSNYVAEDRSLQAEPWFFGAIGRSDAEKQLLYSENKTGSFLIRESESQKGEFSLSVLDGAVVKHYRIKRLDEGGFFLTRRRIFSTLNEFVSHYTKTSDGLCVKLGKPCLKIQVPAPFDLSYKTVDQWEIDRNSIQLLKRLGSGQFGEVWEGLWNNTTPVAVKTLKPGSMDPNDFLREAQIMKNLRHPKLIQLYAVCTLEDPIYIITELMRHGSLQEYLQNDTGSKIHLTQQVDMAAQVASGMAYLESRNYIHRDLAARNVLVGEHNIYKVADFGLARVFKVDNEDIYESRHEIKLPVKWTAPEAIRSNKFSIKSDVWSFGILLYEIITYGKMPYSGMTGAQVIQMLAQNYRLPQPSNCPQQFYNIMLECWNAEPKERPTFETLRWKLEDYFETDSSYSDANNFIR

KinomeScan kinase panel [2] = biological target: T2, KinomeScan kinase panel (Homo sapiens, UniProt Q9Y616); details: IRAK3, 10 µM; read-out: score (%)
T2 construct: purchased DiscoveRx (KinomeScan)
T2 sequence (Q9Y616 1-596): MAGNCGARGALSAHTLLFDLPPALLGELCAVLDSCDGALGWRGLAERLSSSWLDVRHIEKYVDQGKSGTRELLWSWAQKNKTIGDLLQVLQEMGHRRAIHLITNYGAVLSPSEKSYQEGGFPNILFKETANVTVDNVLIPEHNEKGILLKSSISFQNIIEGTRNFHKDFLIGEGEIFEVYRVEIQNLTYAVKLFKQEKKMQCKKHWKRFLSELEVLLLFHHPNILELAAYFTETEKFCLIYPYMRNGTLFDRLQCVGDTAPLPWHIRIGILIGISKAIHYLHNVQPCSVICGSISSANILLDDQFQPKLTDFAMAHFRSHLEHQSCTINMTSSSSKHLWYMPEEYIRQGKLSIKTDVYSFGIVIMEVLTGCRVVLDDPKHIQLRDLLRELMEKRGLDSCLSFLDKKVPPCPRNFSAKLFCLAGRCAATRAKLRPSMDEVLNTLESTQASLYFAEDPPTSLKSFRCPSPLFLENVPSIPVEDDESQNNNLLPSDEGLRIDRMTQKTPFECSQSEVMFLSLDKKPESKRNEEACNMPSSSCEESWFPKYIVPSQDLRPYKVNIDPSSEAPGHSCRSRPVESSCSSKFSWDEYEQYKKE

KinomeScan kinase panel [3] = biological target: T3, KinomeScan kinase panel (Homo sapiens, UniProt Q96SB4); details: read-out: score (%)
T3 construct: purchased DiscoveRx (KinomeScan)
T3 sequence (Q96SB4 whole entry): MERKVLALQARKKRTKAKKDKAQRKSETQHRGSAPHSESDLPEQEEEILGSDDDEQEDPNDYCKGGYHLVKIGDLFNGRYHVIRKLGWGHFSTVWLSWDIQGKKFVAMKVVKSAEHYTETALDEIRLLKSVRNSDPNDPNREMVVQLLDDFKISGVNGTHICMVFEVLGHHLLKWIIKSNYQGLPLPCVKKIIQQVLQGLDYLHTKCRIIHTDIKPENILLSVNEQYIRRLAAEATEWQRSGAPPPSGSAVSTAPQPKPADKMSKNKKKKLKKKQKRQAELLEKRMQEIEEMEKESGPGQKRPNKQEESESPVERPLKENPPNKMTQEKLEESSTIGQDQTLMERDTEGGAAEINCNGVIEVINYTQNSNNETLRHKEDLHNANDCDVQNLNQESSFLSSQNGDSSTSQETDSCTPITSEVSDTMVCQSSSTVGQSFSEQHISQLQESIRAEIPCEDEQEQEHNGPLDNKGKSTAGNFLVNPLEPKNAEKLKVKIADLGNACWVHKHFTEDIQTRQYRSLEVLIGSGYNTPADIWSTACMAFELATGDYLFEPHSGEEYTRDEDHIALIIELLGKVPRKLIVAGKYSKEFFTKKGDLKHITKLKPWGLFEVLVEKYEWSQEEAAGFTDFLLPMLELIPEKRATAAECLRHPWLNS

KinomeScan kinase panel [4] = biological target: T4, KinomeScan kinase panel (Homo sapiens, UniProt P04049); details: read-out: score (%)
T4 construct: purchased DiscoveRx (KinomeScan)
T4 sequence (P04049 whole entry): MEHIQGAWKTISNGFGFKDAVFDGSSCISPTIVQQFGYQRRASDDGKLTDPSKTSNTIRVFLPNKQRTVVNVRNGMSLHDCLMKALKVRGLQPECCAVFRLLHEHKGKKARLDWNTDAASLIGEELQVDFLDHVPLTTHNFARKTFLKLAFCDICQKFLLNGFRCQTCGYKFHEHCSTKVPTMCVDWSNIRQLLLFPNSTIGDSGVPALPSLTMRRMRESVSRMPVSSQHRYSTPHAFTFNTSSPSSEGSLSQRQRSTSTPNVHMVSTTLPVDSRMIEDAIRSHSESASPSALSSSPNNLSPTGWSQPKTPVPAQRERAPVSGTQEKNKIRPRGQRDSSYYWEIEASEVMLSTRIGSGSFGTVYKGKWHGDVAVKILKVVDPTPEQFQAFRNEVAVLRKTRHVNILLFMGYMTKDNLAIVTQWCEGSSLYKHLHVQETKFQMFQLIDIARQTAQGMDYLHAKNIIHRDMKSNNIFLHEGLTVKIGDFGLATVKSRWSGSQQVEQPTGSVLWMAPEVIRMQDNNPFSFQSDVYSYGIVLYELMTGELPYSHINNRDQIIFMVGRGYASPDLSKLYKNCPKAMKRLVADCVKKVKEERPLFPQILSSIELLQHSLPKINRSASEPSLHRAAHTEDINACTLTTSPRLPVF

KinomeScan kinase panel [5] = biological target: T5, KinomeScan kinase panel (Homo sapiens, UniProt Q08881); details: ITK, 10 µM
T5 construct: purchased DiscoveRx (KinomeScan)
T5 sequence (Q08881 1-620): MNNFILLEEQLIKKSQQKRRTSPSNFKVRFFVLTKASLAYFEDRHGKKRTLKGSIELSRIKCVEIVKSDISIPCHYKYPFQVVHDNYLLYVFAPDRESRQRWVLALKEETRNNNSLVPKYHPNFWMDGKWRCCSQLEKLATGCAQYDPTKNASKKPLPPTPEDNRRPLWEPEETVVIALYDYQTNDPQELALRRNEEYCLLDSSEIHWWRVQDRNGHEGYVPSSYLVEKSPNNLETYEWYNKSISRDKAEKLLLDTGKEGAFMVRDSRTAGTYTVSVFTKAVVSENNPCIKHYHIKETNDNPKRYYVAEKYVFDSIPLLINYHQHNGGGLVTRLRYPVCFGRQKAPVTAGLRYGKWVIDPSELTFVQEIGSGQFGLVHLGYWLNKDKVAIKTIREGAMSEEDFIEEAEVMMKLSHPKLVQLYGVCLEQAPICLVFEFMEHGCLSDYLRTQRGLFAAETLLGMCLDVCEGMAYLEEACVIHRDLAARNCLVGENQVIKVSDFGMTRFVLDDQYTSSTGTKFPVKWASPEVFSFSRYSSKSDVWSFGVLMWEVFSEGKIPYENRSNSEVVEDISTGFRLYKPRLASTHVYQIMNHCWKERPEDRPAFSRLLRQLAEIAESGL

KinomeScan kinase panel [6] = biological target: T6, KinomeScan kinase panel (Homo sapiens, UniProt P15735); details: PHKG2, 10 µM; read-out: score (%)
T6 construct: purchased DiscoveRx (KinomeScan)
T6 sequence (P15735 1-406): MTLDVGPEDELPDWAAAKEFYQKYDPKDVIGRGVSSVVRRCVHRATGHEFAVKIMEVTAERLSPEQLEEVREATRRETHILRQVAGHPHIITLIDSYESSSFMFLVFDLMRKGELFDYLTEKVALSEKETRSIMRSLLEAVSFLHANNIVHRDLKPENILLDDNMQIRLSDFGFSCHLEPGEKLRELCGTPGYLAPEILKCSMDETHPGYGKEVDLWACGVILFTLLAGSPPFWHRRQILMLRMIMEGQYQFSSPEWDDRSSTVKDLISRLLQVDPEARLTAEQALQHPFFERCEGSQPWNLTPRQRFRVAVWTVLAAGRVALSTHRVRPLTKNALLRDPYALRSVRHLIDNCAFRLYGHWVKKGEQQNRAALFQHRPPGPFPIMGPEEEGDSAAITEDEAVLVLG

KinomeScan kinase panel [7] = biological target: T7, KinomeScan kinase panel (Homo sapiens, UniProt P08069); details: IGF1R, 10 µM; read-out: score (%)
T7 construct: purchased DiscoveRx (KinomeScan)
T7 sequence (P08069 31-1367): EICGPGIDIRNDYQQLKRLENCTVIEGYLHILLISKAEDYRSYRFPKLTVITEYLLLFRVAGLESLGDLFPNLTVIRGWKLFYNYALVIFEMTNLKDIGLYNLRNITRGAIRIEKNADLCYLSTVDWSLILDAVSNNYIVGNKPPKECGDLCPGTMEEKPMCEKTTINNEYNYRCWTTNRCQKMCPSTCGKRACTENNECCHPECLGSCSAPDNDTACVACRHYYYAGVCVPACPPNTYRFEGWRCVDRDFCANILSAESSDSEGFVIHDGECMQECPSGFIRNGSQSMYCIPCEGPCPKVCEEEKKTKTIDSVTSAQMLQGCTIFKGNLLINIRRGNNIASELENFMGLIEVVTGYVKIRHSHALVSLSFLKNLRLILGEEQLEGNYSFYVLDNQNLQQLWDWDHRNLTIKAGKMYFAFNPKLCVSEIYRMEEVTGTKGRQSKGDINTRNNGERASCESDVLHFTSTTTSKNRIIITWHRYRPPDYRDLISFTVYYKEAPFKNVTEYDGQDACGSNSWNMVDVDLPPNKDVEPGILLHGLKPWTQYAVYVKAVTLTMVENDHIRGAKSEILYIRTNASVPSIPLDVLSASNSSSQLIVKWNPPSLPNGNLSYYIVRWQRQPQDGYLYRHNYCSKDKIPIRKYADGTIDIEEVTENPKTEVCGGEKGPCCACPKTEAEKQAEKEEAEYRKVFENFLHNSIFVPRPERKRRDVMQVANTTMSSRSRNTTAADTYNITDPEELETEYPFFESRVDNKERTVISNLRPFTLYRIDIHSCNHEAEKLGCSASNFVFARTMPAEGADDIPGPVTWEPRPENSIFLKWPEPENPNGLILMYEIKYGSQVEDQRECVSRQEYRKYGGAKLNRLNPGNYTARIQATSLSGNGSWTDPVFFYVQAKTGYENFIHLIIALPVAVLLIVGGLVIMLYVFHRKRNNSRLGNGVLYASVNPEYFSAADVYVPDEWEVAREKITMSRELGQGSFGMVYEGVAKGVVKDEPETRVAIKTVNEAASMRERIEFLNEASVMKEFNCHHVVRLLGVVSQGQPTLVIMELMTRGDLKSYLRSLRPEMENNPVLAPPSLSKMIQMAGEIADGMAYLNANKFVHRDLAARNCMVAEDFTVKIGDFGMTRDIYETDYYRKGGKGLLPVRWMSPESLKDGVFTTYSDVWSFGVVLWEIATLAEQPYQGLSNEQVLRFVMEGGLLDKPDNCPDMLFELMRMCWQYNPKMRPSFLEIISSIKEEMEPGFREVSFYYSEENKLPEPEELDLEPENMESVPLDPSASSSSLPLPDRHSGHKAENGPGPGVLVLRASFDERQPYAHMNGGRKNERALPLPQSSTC

KinomeScan kinase panel [8] = biological target: T8, KinomeScan kinase panel (Homo sapiens, UniProt O75116); details: read-out: score (%)
T8 construct: purchased DiscoveRx (KinomeScan)
T8 sequence (O75116 whole entry): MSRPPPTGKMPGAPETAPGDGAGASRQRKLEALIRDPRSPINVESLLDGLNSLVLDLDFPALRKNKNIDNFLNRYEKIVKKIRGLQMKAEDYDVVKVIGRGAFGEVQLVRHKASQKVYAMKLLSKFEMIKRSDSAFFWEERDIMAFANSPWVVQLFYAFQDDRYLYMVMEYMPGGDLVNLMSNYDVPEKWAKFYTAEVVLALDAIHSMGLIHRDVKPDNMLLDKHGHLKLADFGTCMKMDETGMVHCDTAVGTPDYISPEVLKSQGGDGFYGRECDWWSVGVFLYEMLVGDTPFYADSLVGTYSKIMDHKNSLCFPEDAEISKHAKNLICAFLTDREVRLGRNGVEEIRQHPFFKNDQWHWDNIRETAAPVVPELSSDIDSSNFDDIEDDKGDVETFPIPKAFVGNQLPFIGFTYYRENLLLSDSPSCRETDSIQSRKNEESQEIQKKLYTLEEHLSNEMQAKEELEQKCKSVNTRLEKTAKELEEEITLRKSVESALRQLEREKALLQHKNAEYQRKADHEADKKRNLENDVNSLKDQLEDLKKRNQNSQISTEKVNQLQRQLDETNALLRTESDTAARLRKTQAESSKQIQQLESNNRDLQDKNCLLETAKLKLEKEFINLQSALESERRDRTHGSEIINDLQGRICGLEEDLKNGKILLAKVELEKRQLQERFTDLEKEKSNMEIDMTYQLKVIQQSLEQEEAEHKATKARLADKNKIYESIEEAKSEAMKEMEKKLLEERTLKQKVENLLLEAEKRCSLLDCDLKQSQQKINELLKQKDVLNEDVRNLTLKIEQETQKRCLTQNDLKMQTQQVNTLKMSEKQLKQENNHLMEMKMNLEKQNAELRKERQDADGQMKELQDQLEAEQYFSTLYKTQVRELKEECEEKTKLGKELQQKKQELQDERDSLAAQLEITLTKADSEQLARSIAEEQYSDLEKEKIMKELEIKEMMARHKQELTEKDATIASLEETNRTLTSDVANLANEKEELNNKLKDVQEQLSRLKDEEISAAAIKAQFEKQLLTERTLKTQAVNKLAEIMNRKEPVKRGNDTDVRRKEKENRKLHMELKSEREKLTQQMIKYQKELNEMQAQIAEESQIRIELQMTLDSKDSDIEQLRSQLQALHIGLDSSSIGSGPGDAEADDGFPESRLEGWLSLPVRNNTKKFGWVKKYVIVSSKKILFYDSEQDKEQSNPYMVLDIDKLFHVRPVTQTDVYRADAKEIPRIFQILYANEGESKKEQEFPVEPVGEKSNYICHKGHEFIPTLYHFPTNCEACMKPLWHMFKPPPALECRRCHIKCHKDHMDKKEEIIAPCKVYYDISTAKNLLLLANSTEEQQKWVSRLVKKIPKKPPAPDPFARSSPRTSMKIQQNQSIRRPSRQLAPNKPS

remaining binding at 10 µM (KinomeScan kinase panel [3]; SRPK1, 10 µM)	SMILES	remaining binding at 10 µM (KinomeScan kinase panel [1])	remaining binding at 10 µM (KinomeScan kinase panel [2])	remaining binding at 10 µM (KinomeScan kinase panel [3]; kinase SRPK1, 10 µM)	remaining binding at 10 µM (KinomeScan kinase panel [4]; kinase RAF1, 10 µM)	score (%) (KinomeScan kinase panel [5])	remaining binding at 10 µM (KinomeScan kinase panel [6])	remaining binding at 10 µM (KinomeScan kinase panel [7])	remaining binding at 10 µM (KinomeScan kinase panel [8]; kinase ROCK2, 10 µM)	remaining binding at 10 µM (KinomeScan kinase panel [4]; RAF1, 10 µM)	remaining binding at 10 µM (KinomeScan kinase panel [8]; ROCK2, 10 µM)
–	CCN1CCN(Cc2ccc(NC(=O)c3ccc(C)c(C#Cc4cccnc4)c3)cc2C(F)(F)F)CC1 [XMD15-44]	0.15%	> 30%	100%	0.5%	nb (Hits values higher than 30% were considered negative (no binding: nb))	92%	> 30%	19%	–	–
0.25%	CCN1CCN(Cc2ccc(NC(=O)c3ccc(C)c(/C=C/c4cnc5[nH]ccc5c4Cl)c3)cc2C(F)(F)F)CC1 [HG-6-63-01, (E)-3-(2-(4-chloro-1H-pyrrolo[2,3-b]pyridin-5-yl)vinyl)-N-(4-((4-ethylpiperazin-1-yl)methyl)-3-(trifluoromethyl)phenyl)-4-methylbenzamide]	0.55%	> 30%	–	–	21%	> 30%	> 30%	–	2.4%	> 30%
–	CCN1CCN(Cc2ccc(NC(=O)c3ccc(C)c(NC(=O)c4cncc(-c5cccs5)c4)c3)cc2C(F)(F)F)CC1 [ALW-II-41-27]	0.2%	> 30%	> 30%	–	8.6%	> 30%	> 30%	–	1.4%	18%
